Source: patent US9642897B2, “Treatment of bone diseases” (THE UNIVERSITY OF SYDNEY, priority 2011, dated 2017)

Assay: Pharmacokinetics of oral PA: serum concentrations by GC-MS
Format: in vivo, C57BL/6 mice
Source text: Nine-month-old oophorectomised (OVX) and SHAM-operated C57BL/6 mice (n=24 per group) were obtained from the Animal Resources Centre (Perth, Wash.). After 2 weeks of acclimation, mice were divided into four groups (Table 2) and received treatment in their drinking water for a total of 6 weeks. Mice treated with plain water were used as controls. Mice were housed in cages in a limited access room.
For absorption analysis of minerals in the duodenum, tissue was dissected and left to dry up in room temperature. 100 mg of tissue were dissolved in nitric acid and concentrations of nine minerals was quantified in the tissue homogenates using an Agilent 5973 mass selective detector via an auto-sampler Agilent Technologies 7683, and controlled using Agilent ChemStation software (Agilent, Santa Clara, Calif., USA). For pharmacokinetic analysis of PA, serum of Pa- and vehicle-treated animals was obtained by centrifugation. 1 μl of serum was injected into an Agilent 6890 gas chromato-graph, interfaced to an Agilent 5973 mass selective detector via an auto-sampler Agilent Technologies 7683, and controlled using Agilent ChemStation software (Agilent, Santa Clara, Calif., USA).

O=C(O)c1ccccn1 [PA, pyridine-2-carboxylic acid]
serum concentrations of PA at higher dose (higher dose vs 0.5 gm/Kg/d): not followed by higher serum concentrations | serum concentrations of PA, OVX vs SHAM counterpart (low dose of PA): lower serum concentrations | serum concentrations of PA (oral PA in drinking water, 6 weeks, Sham and OVX mice): increased in the treated groups in a dose-dependent manner
